# Experiments:
# Type in all cases: cell-based
# [1] = system: TGF-β-induced epithelial-mesenchymal transition (EMT) response in squamous cell carcinoma (A431) cells; assay: Immunoblot of EMT markers in A431 cells
# Method: (FIG. 26A) Immunoblot analysis was carried out using cell lysates of A431 cells following incubation with TGF-β, P16, or scrambled control (P16.2) as indicated to determine expression of proteins involved in the EMT response. (FIG. 26B) Densitometry analysis was subsequently performed using the developed immunoblot to illustrate the relative expression of each protein as a function as P16 concentration as indicated.
# A431 cancer cells treated with 10 nM of P16.2 (negative peptide control), P12, P16 or PA in the absence or presence of 100 pM TGF-b, followed by 24 hrs of incubation. Cells lysates were analyzed by Western blot for the expression of Fibronectin (mesenchymal marker), Snail and Twist (EMT markers). Actin expression was used as loading control.
# [2] = system: TGF-β-induced fibrotic response in primary human fibroblasts isolated from scleroderma patients; assay: Immunoblot of fibrotic markers in scleroderma patient fibroblasts; conditions: various concentrations of P16, 20 pM TGF-β, 24 hours (FIG. 31)
# Source text: (FIG. 30A) Cell lysates were separated by gel electrophoresis, transferred to a membrane, and immunoblotted with antibodies against the indicated proteins. (FIG. 30B) The data shown represent the mean expression levels of 3 different biological replicates calculated by densitometry of fibronectin, PAI-1, and CTGF intensity levels normalized to α-tubulin. Error bars represent the standard deviation of the replicate experiments. A single asterisk designates a t test P value of less than 0.05.
# Fibroblasts were starved for 36 hours, then treated with 20 pM TGF-β and various concentrations of P16 as indicated for 24 hours. (FIG. 31A) Cell lysates were separated by gel electrophoresis, transferred to a membrane, and immunoblotted with antibodies against the indicated proteins. (FIG. 31B) The data shown represent the mean expression levels of 3 different biological replicates calculated by densitometry of fibronectin, PAI-1, and CTGF intensity levels normalized to α-tubulin. Error bars represent the standard deviation of the replicate experiments. A single asterisk designates a t test P value of less than 0.05, and a double asterisk indicates a P value of less than 0.01.
# [3] = system: TGF-b induced cellular invasion of squamous cell carcinoma (A431) cells; assay: Matrigel invasion assay, A431 cells; conditions: 10 nM peptide, 100 pM TGF-b, 24 hrs (FIG. 38)
# Method: A431 cancer cells (8000 cells) were seeded on a BioCoat™ Matrigel® Invasion Chamber and treated with 10 nM of P16.2 (negative peptide control), P16 or PA in the absence or presence of 100 pM TGF-b, followed by 24 hrs of incubation. Invasive cells (in the lower chambers) were stained by crystal violet dye, photographed and counted. Representative photos (A) and statistical plots of invasion (B) are shown. The data are shown as mean±SD of the number of invasive cells for three independent experiments. **P<0.01 and ***P<0.001 as compared with controls. […] Squamous cell carcinoma (epidermoid A431 and head and neck FaDu) cells were stimulated with 100 pM of TGF-b1, then treated with 10 nM of peptide 16.2, P16, PA or CD109 for 24 hours. Cells were analysed by Flow cytometry and CD133 positive cell population, which represent cancer stem cell population, were quantified.
sequence,measurement,setting,value
ETWIWLDTNMGSRIYQ [Peptide P16],"inhibition of TGF-b induced EMT response (Fibronectin, Snail, Twist)","[1]; 10 nM peptide, 100 pM TGF-b, 24 hrs (FIG. 33)",inhibit
same,"inhibition of TGF-β-induced EMT response in A431 cells, dose-dependent","[1]; immunoblot and densitometry, P16 concentrations as indicated (FIG. 26)",inhibit
same,"inhibition of TGF-β-induced fibrotic response, dose-dependent",[2],inhibit
same,inhibition of TGF-b induced cellular invasion,[3],significantly inhibit
